We go through three molecules from patent US20230074558A1, “DIMERIC COMPOUNDS AS STING AGONISTS” (Mersana Therapeutics, Inc., priority 2019, published 2023).

The target of assay [1] is T1, human STING (homozygous HAQ allele) (Homo sapiens, UniProt Q86WV6, G230A/H232R/R293Q/R71H).
T1 construct: THP1-Dual™ Human Monocytes cells with the homozygous HAQ allele, known to be a natural variant allele of STING; host or cells: THP1-Dual human monocytes
As to the kind of experiment: Activation of human STING signaling in THP1-Dual Human Monocytes cells, IRF3 luciferase reporter induction. In kind it is cell-based. The following applies: 24 hours incubation. As to the method:
THP1-Dual™ Human Monocytes cells with the homozygous HAQ allele, known to be a natural variant allele of STING occurring in ˜20% of the human population (Invivogen) have been engineered with two independent gene reporter systems: a secreted embryonic alkaline phosphatase (SEAP) reporter gene for NFkB activity, and secreted luciferase reporter for […] (IRF3) activity were used. 4×10^5 THP1-Dual™ cells were incubated with test Compounds in a 5-fold titration steps from 1 to 0.0128 μM in RPMI media with 10% FBS, for 24 hours at 37° C. with 5% CO2. Cell culture supernatants (20 μl) from each incubated sample was added to resuspended QUANTI-Blue™ Solution (Invivogen, 180 μl) in each well of a flat-bottom 96-well plate, then incubated for 2 h. NFkB levels were evaluated using a spectrophotometer at 620-655 nm.
To evaluate IRF3 reporter levels, cell culture supernatant (20 μl) from each incubated sample was added to QUANTI-Luc™ assay solution (Invivogen, 50 μl), and the luminescence was measured with a SpectraMax M3 spectrophotometer (Molecular Devices).
The EC50 value was determined from the dose response curve based on reference Compounds. Table A provides the results for IRF3 reporter induction THP1-Dual™ Human Monocytes cells and Table B provides the results for IRF3 reporter induction in THP1-Dual™ KI-hSTING-R232 Cells (“A” means <1 μM; “B” means ≥1 μM and <10 μM; “C” means ≥10 μM).
A general note: A reporter such as luciferase makes a cellular process visible.

Assay [2] concerns the target T2, human STING (Homo sapiens, UniProt Q86WV6, G230A/H232R/R293Q/R71H).
T2 construct: host or cells: THP1-Dual cells, digitonin-permeabilized
As to the kind of experiment: Activation of human STING signaling in permeabilized THP1-Dual cells, IRF3 induction. The class given is cell-based. The following applies: digitonin-permeabilized THP1-Dual cells, 30 minutes on ice then 24 h. The procedure:
4×10^5 THP1-Dual™ cells (NF-κB-SEAP and IRF-Lucia luciferase Reporter Monocytes, Invivogen) were incubated with test Compounds in a 5-fold titration steps from […] in permeabilized buffer (50 mM HEPES pH 7.0, 100 mM KCl, 3 mM MgCl2, 85 mM sucrose, 0.2% BSA, 1 mM ATP, 0.1 mM GTP, 0.1 mM TTP, […]) for 30 minutes on ice. Cells were then washed and incubated in a fresh RPMI media with 10% FBS at 37° C. with 5% CO2 for 24 h. Cell culture supernatants from each sample were collected and NFkB and IRF3 were evaluated as above. Table B provides the results for IRF3 induction (“A” means <1 μM; “B” means ≥1 μM and <10 μM; “C” means ≥10 μM).

T2 sequence (Q86WV6 whole entry R71H/G230A/H232R/R293Q): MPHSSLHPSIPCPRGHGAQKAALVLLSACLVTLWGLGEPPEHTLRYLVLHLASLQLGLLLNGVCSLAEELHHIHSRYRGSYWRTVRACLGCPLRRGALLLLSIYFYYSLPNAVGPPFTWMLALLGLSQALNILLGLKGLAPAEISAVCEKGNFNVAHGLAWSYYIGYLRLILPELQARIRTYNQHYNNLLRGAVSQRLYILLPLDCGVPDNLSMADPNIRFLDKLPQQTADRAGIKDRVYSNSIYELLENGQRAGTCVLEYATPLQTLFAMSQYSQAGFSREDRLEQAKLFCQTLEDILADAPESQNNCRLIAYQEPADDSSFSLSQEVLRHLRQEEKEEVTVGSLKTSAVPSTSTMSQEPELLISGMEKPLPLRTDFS
T1 sequence (Q86WV6 whole entry R71H/G230A/H232R/R293Q): as above

In general, EC50 refers to the midpoint of the concentration-response curve. Low readings indicate greater potency, high ones weaker potency. As for `O=C(O)CCC(=O)c1cc2ccc(NC(=O)Nc3ccc4cc(C(=O)CCC(=O)O)sc4c3)cc2s1` [Compound 25, 4,4′-((carbonylbis(azanediyl))bis(benzo[b]thiophene-6,2-diyl))bis(4-oxobutanoic acid)], the EC50 in assay [1] and in assay [2] was at least 10 µM throughout.
For the molecule `O=C(O)CCC(=O)c1cc2ccc(/C=C\c3ccc4cc(C(=O)CCC(=O)O)sc4c3)cc2s1` [Compound 36, (Z)-4,4′-(ethene-1,2-diylbis(benzo[b]thiophene-6,2-diyl))bis(4-oxobutanoic acid)], the half-maximal effective concentration (EC50) in assay [1] and in assay [2] was at least 10 µM throughout.
Turning to `O=C(O)CCC(=O)c1cc2ccc(CNC(=S)NCc3ccc4cc(C(=O)CCC(=O)O)sc4c3)cc2s1` [Compound 48, 4,4′-(((thiocarbonylbis(azanediyl))bis(methylene))bis(benzo[b]thiophene-6,2-diyl))bis(4-oxobutanoic acid)], the EC50 in assay [1] and in assay [2] was at least 10 µM throughout.
